Test results as given in patent US9663526B2, “Aminopyrimidinyl compounds” (Pfizer Inc., priority 2014, dated 2017).
pIC50: −log10 of the molar value. Like-named read-outs stand apart in the source and are kept apart here.

Tests used:
[1] = molecular target: recombinant human kinase domain of JAK1 (Homo sapiens (Human), UniProt P23458); assay: JAK Caliper enzyme assay at 1 mM ATP (JAK1); assay type: biochemical; conditions: for IC50: 1 mM ATP, read-out: IC50 (nM) JAK1;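 for all read-outs here: microfluidic mobility-shift readout of synthetic fluorescent peptide phosphorylation, percent product converted from peak height, inhibition relative to DMSO-only wells as uninhibited baseline, room temperature incubation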
[2] = molecular target: recombinant human kinase domain of JAK2 (Homo sapiens (Human), UniProt O60674); assay: JAK Caliper enzyme assay at 1 mM ATP (JAK2); assay type: biochemical;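 note: microfluidic mobility-shift read-out of fluorescent synthetic peptide phosphorylation, percent product converted from peak heights, room temperature, DMSO-only wells as uninhibited baseline, inhibition curve fit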
[3] = molecular target: recombinant human kinase domain of JAK3 (Homo sapiens (Human), UniProt P52333); assay: JAK Caliper enzyme assay at 1 mM ATP (JAK3); assay type: biochemical; conditions: for IC50: 1 mM ATP, read-out: IC50 (nM) JAK3;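 for all read-outs here: microfluidic mobility-shift readout of synthetic peptide phosphorylation, percent product converted from peak heights, normalized to DMSO-only wells as uninhibited baseline, room temperature incubation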
[4] = molecular target: recombinant human kinase domain of TYK2 (Homo sapiens (Human), UniProt P29597); assay: JAK Caliper enzyme assay at 1 mM ATP (TYK2); assay type: biochemical; conditions: for IC50: 1 mM ATP, read-out: IC50 (nM) TYK2;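 for all read-outs here: microfluidic mobility-shift readout of synthetic peptide phosphorylation by TYK2, tuned to 20–30% conversion at room temperature, reaction stopped with EDTA, DMSO-only wells as uninhibited baseline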
[5] = tested on: interferon alpha signalling (TYK2 and JAK1), STAT3 phosphorylation; assay: Human whole blood INFα induced STAT3 phosphorylation assay; assay type: cell-based; conditions: compound 60 minutes at 37° C., IFNα 5000 U/ml for 15 minutes, pSTAT3 in lymphocyte population by flow cytometry, read-out: HWB IFN alpha IC50;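 note: flow cytometry with anti-pSTAT3 staining, signal as percent-positive × mean fluorescence, baseline from unstimulated wells, 11-point dilution series, IC50 as inhibition of pSTAT3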

Chain of recombinant human kinase domain of JAK1 (P23458 875-1153): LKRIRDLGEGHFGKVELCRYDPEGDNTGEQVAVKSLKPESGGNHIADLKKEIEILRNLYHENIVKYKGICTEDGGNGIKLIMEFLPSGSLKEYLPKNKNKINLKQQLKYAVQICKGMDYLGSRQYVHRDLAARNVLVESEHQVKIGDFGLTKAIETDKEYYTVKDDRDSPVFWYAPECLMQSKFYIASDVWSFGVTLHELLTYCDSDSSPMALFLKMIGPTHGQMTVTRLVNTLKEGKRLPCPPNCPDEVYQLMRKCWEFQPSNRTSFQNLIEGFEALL
Chain of recombinant human kinase domain of TYK2 (P29597 897-1176): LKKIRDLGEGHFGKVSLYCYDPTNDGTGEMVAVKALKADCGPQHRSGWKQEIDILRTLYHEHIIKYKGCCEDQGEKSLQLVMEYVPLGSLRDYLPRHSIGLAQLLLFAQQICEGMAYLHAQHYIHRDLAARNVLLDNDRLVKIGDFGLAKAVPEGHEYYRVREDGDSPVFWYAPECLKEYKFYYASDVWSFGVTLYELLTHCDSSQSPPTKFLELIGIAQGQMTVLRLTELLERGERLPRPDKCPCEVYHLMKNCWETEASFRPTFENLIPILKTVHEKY
Chain of recombinant human kinase domain of JAK2 (O60674 849-1124): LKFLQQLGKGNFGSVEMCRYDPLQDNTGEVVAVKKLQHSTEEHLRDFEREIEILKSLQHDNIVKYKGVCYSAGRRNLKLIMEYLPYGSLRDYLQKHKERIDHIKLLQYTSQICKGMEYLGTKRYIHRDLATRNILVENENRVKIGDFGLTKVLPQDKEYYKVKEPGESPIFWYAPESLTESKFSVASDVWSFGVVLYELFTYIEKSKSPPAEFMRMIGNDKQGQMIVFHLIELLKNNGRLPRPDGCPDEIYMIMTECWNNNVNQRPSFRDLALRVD
Chain of recombinant human kinase domain of JAK3 (P52333 822-1111): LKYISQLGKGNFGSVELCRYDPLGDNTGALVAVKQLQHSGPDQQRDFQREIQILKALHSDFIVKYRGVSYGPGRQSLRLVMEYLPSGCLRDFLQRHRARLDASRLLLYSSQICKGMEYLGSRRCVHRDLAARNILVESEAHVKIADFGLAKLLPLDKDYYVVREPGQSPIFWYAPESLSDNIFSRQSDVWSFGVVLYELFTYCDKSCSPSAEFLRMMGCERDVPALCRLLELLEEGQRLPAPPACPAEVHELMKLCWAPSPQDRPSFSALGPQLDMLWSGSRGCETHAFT

SMILES | IC50 [1] | IC50 [2] | IC50 [3] | pIC50 [4] | pIC50 [5] | IC50 [4] | pIC50 [1] | pIC50 [3]
C[C@@H](CO)c1ccc(Nc2nccc(N3C[C@H]4CC[C@@H](C3)N4C(=O)[C@@H]3CC3(F)F)n2)cn1 (single isomer, unassigned) [Example 11] | 139 nM | 141 nM | > 10000 nM | 7.40 | 6.87 | – | – | –
C[C@H](CO)c1ccc(Nc2nccc(N3C[C@H]4CC[C@@H](C3)N4C(=O)[C@@H]3CC3(F)F)n2)cn1 (single isomer, unassigned) [Example 12] | 79 nM | 80 nM | > 10000 nM | 7.55 | 7.06 | – | – | –
CNC(=O)c1ncc(Nc2nccc(N3C[C@H]4CC[C@@H](C3)N4C(=O)[C@@H]3CC3(F)F)n2)cc1C (single isomer, unassigned) [Example 33] | 62 nM | 116 nM | 9280 nM | – | 6.91 | 15 nM | – | –
CNC(=O)c1ncc(Nc2nccc(N3C[C@H]4CC[C@@H](C3)N4[C@H]3C[C@@H](C#N)C3)n2)cc1C (single isomer, unassigned) [Example 61] | – | 44 nM | – | – | 6.87 | 18 nM | 7.51 | 5.39
CCNC(=O)N1[C@@H]2CC[C@H]1CN(c1ccnc(Nc3cn[nH]c3)n1)C2 [Example 5, (1R,5S)—N-ethyl-3-[2-(1H-pyrazol-4-ylamino)pyrimidin-4-yl]-3,8-diazabicyclo[3.2.1]octane-8-carboxamide] | – | 477 nM | > 10000 nM | – | 6.98 | – | – | –
Cn1cc(Nc2nccc(N3C[C@H]4CC[C@@H](C3)N4C(=O)[C@@H]3CC3(F)F)n2)cn1 [Example 7, [(1S)-2,2-difluorocyclopropyl][(1R,5S)-3-{2-[(1-methyl-1H-pyrazol-4-yl)amino]pyrimidin-4-yl}-3,8-diazabicyclo[3.2.1]oct-8-yl]methanone] | – | – | – | – | 7.52 | – | – | –
CCNC(=O)c1ncc(Nc2nccc(N3C[C@H]4CC[C@@H](C3)N4C(=O)C3CC3)n2)cc1C [Example 14, 5-({4-[(1R,5S)-8-(cyclopropylcarbonyl)-3,8-diazabicyclo[3.2.1]oct-3-yl]pyrimidin-2-yl}amino)-N-ethyl-3-methylpyridine-2-carboxamide] | – | – | > 10000 nM | – | 6.54 | 79 nM | – | –
Cc1cc(Nc2nccc(N3C[C@H]4CC[C@@H](C3)N4C(=O)C3CC3)n2)cnc1C(N)=O [Example 15, 5-({4-[(1R,5S)-8-(cyclopropylcarbonyl)-3,8-diazabicyclo[3.2.1]oct-3-yl]pyrimidin-2-yl}amino)-3-methylpyridine-2-carboxamide] | – | – | – | – | 6.27 | – | – | –
O=C([C@@H]1CC1(F)F)N1[C@@H]2CC[C@H]1CN(c1ccnc(Nc3cnc(N4CC[C@@H](O)C4)c(F)c3)n1)C2 [Example 21, [(1S)-2,2-difluorocyclopropyl]{(1R,5S)-3-[2-({5-fluoro-6-[(3R)-3-hydroxypyrrolidin-1-yl]pyridin-3-yl}amino)pyrimidin-4-yl]-3,8-diazabicyclo[3.2.1]oct-8-yl}methanone] | – | – | – | – | 6.14 | – | – | –
O=C([C@@H]1CC1(F)F)N1[C@@H]2CC[C@H]1CN(c1ccnc(Nc3cnc(OCCO)c(Cl)c3)n1)C2 [Example 23, [(1R,5S)-3-(2-{[5-chloro-6-(2-hydroxyethoxy)pyridin-3-yl]amino}pyrimidin-4-yl)-3,8-diazabicyclo[3.2.1]oct-8-yl][(1S)-2,2-difluorocyclopropyl]methanone] | – | – | – | – | 6.37 | – | – | –
CCn1cc(Nc2nccc(N3C[C@H]4CC[C@@H](C3)N4C(=O)[C@@H]3C[C@H]3C#N)n2)cn1 [Example 24, (1R,2R)-2-{[(1R,5S)-3-{2-[(1-ethyl-1H-pyrazol-4-yl)amino]pyrimidin-4-yl}-3,8-diazabicyclo[3.2.1]oct-8-yl]carbonyl}cyclopropanecarbonitrile] | 13 nM | 67 nM | 4990 nM | – | 7.37 | – | – | –
CNC(=O)c1ncc(Nc2nccc(N3C[C@H]4CC[C@@H](C3)N4C(=O)[C@@H]3C[C@H]3C#N)n2)cc1C [Example 32, 5-({4-[(1R,5S)-8-{[(1R,2R)-2-cyanocyclopropyl]carbonyl}-3,8-diazabicyclo[3.2.1]oct-3-yl]pyrimidin-2-yl}amino)-N,3-dimethylpyridine-2-carboxamide] | – | 140 nM | > 10000 nM | – | 6.94 | – | – | –
Cc1cc(Nc2nccc(N3C[C@H]4CC[C@@H](C3)N4C(=O)[C@@H]3CC3(F)F)n2)cnc1C(N)=O [Example 35, 5-({4-[(1R,5S)-8-{[(1S)-2,2-difluorocyclopropyl]carbonyl}-3,8-diazabicyclo[3.2.1]oct-3-yl]pyrimidin-2-yl}amino)-3-methylpyridine-2-carboxamide] | 170 nM | 337 nM | > 10000 nM | – | 7.05 | – | – | –
CNC(=O)c1ncc(Nc2nccc(N3C[C@H]4CC[C@@H](C3)N4C(=O)[C@H]3C[C@@H]3F)n2)cc1C [Example 44, 5-({4-[(1R,5S)-8-{[(1R,2S)-2-fluorocyclopropyl]carbonyl}-3,8-diazabicyclo[3.2.1]oct-3-yl]pyrimidin-2-yl}amino)-N,3-dimethylpyridine-2-carboxamide] | 475 nM | 854 nM | > 10000 nM | – | 6.25 | – | – | –
CNC(=O)c1ncc(Nc2nccc(N3C[C@H]4CC[C@@H](C3)N4C(=O)[C@@H]3C[C@H]3F)n2)cc1C [Example 45, 5-({4-[(1R,5S)-8-{[(1S,2R)-2-fluorocyclopropyl]carbonyl}-3,8-diazabicyclo[3.2.1]oct-3-yl]pyrimidin-2-yl}amino)-N,3-dimethylpyridine-2-carboxamide] | 46 nM | 100 nM | 7400 nM | – | 6.96 | – | – | –
O=C([C@@H]1CC1(F)F)N1[C@@H]2CC[C@H]1CN(c1ccnc(Nc3cn[nH]c3)n1)C2 [Example 51, ((1R,5S)-3-(2-((1H-pyrazol-4-yl)amino)pyrimidin-4-yl)-3,8-diazabicyclo[3.2.1]octan-8-yl)((S)-2,2-difluorocyclopropyl)methanone] | 13 nM | 97 nM | 8610 nM | – | 7.70 | – | – | –
Cn1cc(Nc2nccc(N3C[C@H]4CC[C@@H](C3)N4Cc3ccns3)n2)cn1 [Example 55, N-(1-methyl-1H-pyrazol-4-yl)-4-[(1R,5S)-8-(1,2-thiazol-5-ylmethyl)-3,8-diazabicyclo[3.2.1]oct-3-yl]pyrimidin-2-amine] | 35 nM | 221 nM | 8620 nM | – | 6.77 | – | – | –
Cn1cc(Nc2nccc(N3C[C@H]4CC[C@@H](C3)N4Cc3cnoc3)n2)cn1 [Example 58, N-(1-methyl-1H-pyrazol-4-yl)-4-[(1R,5S)-8-(1,2-oxazol-4-ylmethyl)-3,8-diazabicyclo[3.2.1]oct-3-yl]pyrimidin-2-amine] | 267 nM | – | > 10000 nM | – | 6.80 | 73 nM | – | –
Cn1cc(Nc2nccc(N3C[C@H]4CC[C@@H](C3)N4C3(CC#N)CN(S(C)(=O)=O)C3)n2)cn1 [Example 83, {3-[(1R,5S)-3-{2-[(1-methyl-1H-pyrazol-4-yl)amino]pyrimidin-4-yl}-3,8-diazabicyclo[3.2.1]oct-8-yl]-1-(methylsulfonyl)azetidin-3-yl}acetonitrile] | – | – | 1240 nM | – | 7.07 | – | – | –
CNC(=O)c1ncc(Nc2nccc(N3C[C@H]4CC[C@@H](C3)N4C(=O)NCC#N)n2)cc1C [Example 90, (1R,5S)—N-(cyanomethyl)-3-(2-{[5-methyl-6-(methylcarbamoyl)pyridin-3-yl]amino}pyrimidin-4-yl)-3,8-diazabicyclo[3.2.1]octane-8-carboxamide] | 17 nM | – | 4170 nM | – | 6.61 | – | – | –
Cc1cnc(Nc2ccc(OCCO)nc2)nc1N1C[C@H]2[C@@H](C)[C@@]2(NC(=O)[C@H]2C[C@@H]2C#N)C1 [Example 98, (1S,2S)-2-cyano-N-[(1S,5R,6R)-3-(2-{[6-(2-hydroxyethoxy)pyridin-3-yl]amino}-5-methylpyrimidin-4-yl)-6-methyl-3-azabicyclo[3.1.0]hex-1-yl]cyclopropanecarboxamide] | 13 nM | 147 nM | 2600 nM | – | 6.61 | – | – | –
O=C(N[C@]12C[C@H]1CN(c1nc(Nc3cnn(CCO)c3)ncc1Cl)C2)C1CC1 [Example 108, N-[(1R,5S)-3-(5-chloro-2-{[1-(2-hydroxyethyl)-1H-pyrazol-4-yl]amino}pyrimidin-4-yl)-3-azabicyclo[3.1.0]hex-1-yl]cyclopropanecarboxamide] | 323 nM | 1490 nM | 3960 nM | – | – | 675 nM | – | –
Cn1cc(Nc2ncc(F)c(N3C[C@@]4(CO)C[C@@]4(NC(=O)[C@@H]4CC4(F)F)C3)n2)cn1 [Example 109, (1S)-2,2-difluoro-N-[(1S,5S)-3-{5-fluoro-2-[(1-methyl-1H-pyrazol-4-yl)amino]pyrimidin-4-yl}-5-(hydroxymethyl)-3-azabicyclo[3.1.0]hex-1-yl]cyclopropanecarboxamide] | 211 nM | – | > 10000 nM | – | 6.29 | 51 nM | – | –
CCNC(=O)c1ccc(Nc2ncc(F)c(N3CC4CC(C3)N4C(=O)C(C)(F)F)n2)cc1C [Example 111, 4-({4-[6-(2,2-difluoropropanoyl)-3,6-diazabicyclo[3.1.1]hept-3-yl]-5-fluoropyrimidin-2-yl}amino)-N-ethyl-2-methylbenzamide] | 1690 nM | 2210 nM | 4870 nM | – | – | 56 nM | – | –
